Test results reported in ChEMBL document CHEMBL1151659, “Effects of Sesquiterpene Lactones on Development of Aedes atropalpus and Relation to Partition Coefficient” (J Nat Prod, 1985).
Calls of active or inactive are those of the source. No cut-off for these calls is given here.

Tests used:
Aedes atropalpus [1] = assay: Toxicity in second-instar Aedes atropalpus in adult stage assessed as growth; type: functional, organism-based
Aedes atropalpus [2] = assay: Toxicity in second-instar Aedes atropalpus in pupal stage assessed as growth; type: functional, organism-based
[3] = Partition coefficient, log P of the compound; type: physicochemical; conditions: octanol/water
Aedes atropalpus [4] = assay: Toxicity in second-instar Aedes atropalpus larvae at 100 ppm after 24 hrs; type: functional, organism-based
Aedes atropalpus [5] = assay: Toxicity in second-instar Aedes atropalpus larvae at 10 ppm after 24 hrs; type: functional, organism-based

C=C1C(=O)O[C@@H]2[C@H]1CC[C@H](C)[C@@H]1[C@H](O)CC(=O)[C@]12C [BIPINNATIN]
Activity (Aedes atropalpus [1]): Active
Activity (Aedes atropalpus [2]): Active
logP [3]: 1.62

C=C1C(=O)O[C@@H]2[C@H]1CC[C@H](C)[C@]1(O)CCC(=O)[C@@]21C [CORONOPILIN]
Activity (Aedes atropalpus [1]): Active
Activity (Aedes atropalpus [2]): Active
logP [3]: 1.42

C=C1C(=O)O[C@@H]2C[C@@]3(C)CCC[C@H](C)C3=C[C@H]12 [HELENINE]
Activity (Aedes atropalpus [1]): Active
Activity (Aedes atropalpus [4]): Active
Activity (Aedes atropalpus [2]): Active
Activity (Aedes atropalpus [5]): Active
logP [3]: 3.38

C[C@H]1C(=O)O[C@@H]2[C@H]1CC[C@H](C)[C@]1(O)C=CC(=O)[C@@]21C [HYMENOLIN]
Activity (Aedes atropalpus [1]): Active
Activity (Aedes atropalpus [2]): Active
logP [3]: 1.7

C=C1C(=O)O[C@@H]2C[C@@]3(C)CCCC(=C)[C@@H]3C[C@H]12 [ISOALANTOLACTONE]
Activity (Aedes atropalpus [1]): Active
Activity (Aedes atropalpus [4]): Active
Activity (Aedes atropalpus [2]): Active
Activity (Aedes atropalpus [5]): Active
logP [3]: 3.42

C=C1C(=O)O[C@@H]2[C@H]1CC[C@H](C)[C@]1(O)C=CC(=O)[C@@]21C [PARTHENIN]
Activity (Aedes atropalpus [1]): Active
Activity (Aedes atropalpus [4]): Active
Activity (Aedes atropalpus [2]): Active
Activity (Aedes atropalpus [5]): Active
logP [3]: 1.37
